# Assay results as given in patent US20240182420A1, “MICROBIOCIDAL ISONICOTINIC AMIDE DERIVATIVES” (SYNGENTA CROP PROTECTION AG, priority 2021, published 2024).
# Experiments:
# [1] = tested on: Botryotinia fuckeliana syn. Botrytis cinerea; assay: Botryotinia fuckeliana syn. Botrytis cinerea (gray mould), liquid culture growth inhibition; type: cell-based; details: PDB nutrient broth, 24° C., 72 hrs, photometric, vs untreated control
# Protocol: (§1) Conidia of the fungus from cryogenic storage were directly mixed into nutrient broth (PDB potato dextrose broth). A DMSO solution of the test compounds was placed into a microtiter plate (96-well format) and the nutrient broth containing the fungal spores was added to it. The test plates were incubated at 24° C. and the inhibition of growth was determined photometrically after 72 hrs.
# [2] = tested on: Glomerella lagenarium syn Colletotrichum lagenarium; assay: Glomerella lagenarium syn. Colletotrichum lagenarium (anthracnose), liquid culture growth inhibition; type: cell-based; details: Colletotrichum orbiculare, PDB nutrient broth, 24° C., 72 hrs, 620 nm, vs untreated control
# Protocol: as §1, with “hrs at 620 nm.” for “hrs.”
# Sclerotinia sclerotiorum = Sclerotinia sclerotiorum (cottony rot, white mold), liquid culture growth inhibition; type: cell-based; details: PDB nutrient broth, 24° C., 72 hrs, 620 nm, vs untreated control
# Protocol: as §1, with “Mycelial fragments” for “Conidia”, “fungus prepared” for “fungus”, “a fresh liquid culture” for “cryogenic storage”, “hrs at 620 nm.” for “hrs.”
# [3] = tested on: Botryotinia fuckeliana syn. Botrytis cinerea; assay: Botryotinia fuckeliana syn. Botrytis cinerea (grey mold on tomato), tomato plants; type: in vivo; details: tomato plants cv. Roter Gnom, inoculated two days after application, leaf area covered by disease 5-6 days after application
# Protocol: 4-week old tomato plants cv. Roter Gnom are treated sprayed in a spray chamber with the formulated test compound diluted in water. The test plants are inoculated by spraying them with a spore suspension two days after application. The inoculated test plants are incubated at 20° C. and 95% rh in a greenhouse and the percentage leaf area covered by disease is assessed when an appropriate level of disease appears on untreated check plants (5-6 days after application).
# Alternaria solani = Alternaria solani (early blight of tomato), tomato leaf disks, preventive; type: in vivo; details: foliar, 96 h, assessed 4 dpi, vs untreated control
# Protocol: Tomato leaf disks are placed on water agar in multiwell plates (24-well format) and sprayed with test solutions. After drying, the leaf disks are inoculated with a spore suspension of the fungus. After appropriate incubation the activity of a compound is assessed 4 dpi (days post inoculation) as preventive fungicidal activity.
# [4] = tested on: Phaeosphaeria nodorum syn. Septoria nodorum; assay: Phaeosphaeria nodorum syn. Septoria nodorum (glume blotch of wheat), wheat leaf segments, preventive; type: in vivo; details: Parastagonospora nodorum, foliar, 96 h, assessed 4 dpi, vs untreated control
# Protocol: Wheat leaf segments are placed on agar in multiwell plates (24-well format) and sprayed with test solutions. After drying, the leaf disks are inoculated with a spore suspension of the fungus. After appropriate incubation the activity of a compound is assessed 4 dpi (days after inoculation) as preventive fungicidal activity.
# The following compounds from Table T1 gave at least 80% control of Phaeosphaeria nodorum at 200 ppm when compared to untreated control under the same conditions, which sowed extensive disease development: • 1.1, 1.3, 1.7, 1.14, 1.39, 1.41, 1.86, 1.87, 1.92, 1.94, 1.95.
# [5] = tested on: Monographella nivalis syn. Microdochium nivale, Fusarium nivale; assay: Monographella nivalis syn. Microdochium nivale (snow mould, foot rot), liquid culture growth inhibition; type: cell-based; details: PDB nutrient broth, 24° C., 72 hrs, 620 nm, vs untreated control
# Protocol: as §1, with “hrs at 620 nm.” for “hrs.”
Structure (SMILES),inhibition of growth at 20 ppm [1],inhibition of growth at 20 ppm [2],inhibition of growth at 20 ppm (Sclerotinia sclerotiorum),pest or weed control at 200 ppm [3],pest or weed control at 200 ppm (Alternaria solani),pest or weed control at 200 ppm [4],inhibition of growth at 20 ppm [5]
"Cc1cccc(Oc2cnc(C)cc2C(=O)NCCc2ccc(Cl)cc2Cl)c1 [Compound 1.2, N-[2-(2,4-dichlorophenyl)ethyl]-2-methyl-5-(3-methylphenoxy) pyridine-4-carboxamide]",≥ 80%,≥ 80%,≥ 80%,,,,
"O=C(NCC(F)c1ccc(Cl)cc1Cl)c1cc(Br)ncc1Oc1cccc(C2CC2)c1 (stereo not drawn) [Compound 1.5, 2-bromo-5-(3-cyclopropyl-phenoxy)-N-[2-(2,4-dichlorophenyl)-2-fluoro-ethyl]pyridine-4-carboxamide]",≥ 80%,≥ 80%,≥ 80%,≥ 50%,,,
"Cc1cncc(Oc2cccc(C3CC3)c2)c1C(=O)NCC(F)c1ccc(Cl)cc1Cl (stereo not drawn) [Compound 1.7, 3-(3-cyclopropyl-phenoxy)-N-[2-(2,4-dichlorophenyl)-2-fluoro-ethyl]-5-methyl-pyridine-4-carboxamide]",≥ 80%,≥ 80%,≥ 80%,≥ 50%,≥ 80%,≥ 80%,
"O=C(NCC(F)c1ccc(Cl)cc1Cl)c1c(Br)cncc1Oc1cccc(C2CC2)c1 (stereo not drawn) [Compound 1.8, 3-bromo-5-(3-cyclopropyl-phenoxy)-N-[2-(2,4-dichlorophenyl)-2-fluoro-ethyl]pyridine-4-carboxamide]",≥ 80%,≥ 80%,≥ 80%,≥ 50%,,,
"Cc1cc(C(=O)NCCc2ccc(Cl)cc2Cl)c(Oc2cccc(C3CC3)c2)cn1 [Compound 1.13, 5-(3-cyclopropyl-phenoxy)-N-[2-(2,4-dichlorophenyl)ethyl]-2-methyl-pyridine-4-carboxamide]",≥ 80%,≥ 80%,≥ 80%,≥ 50%,,,≥ 80%
"N#Cc1cc(C(=O)NCC(F)c2ccc(Cl)cc2Cl)c(Oc2cccc(C3CC3)c2)cn1 (stereo not drawn) [Compound 1.20, 2-cyano-5-(3-cyclopropyl-phenoxy)-N-[2-(2,4-dichlorophenyl) 2-fluoro-ethyl]pyridine-4-carboxamide]",≥ 80%,≥ 80%,≥ 80%,≥ 50%,≥ 80%,,
"Cc1cccc(Oc2cnc(Cl)cc2C(=O)NCCc2cccc(Cl)c2)c1 [Compound 1.46, 2-chloro-N-[2-(3-chlorophenyl)ethyl]-5-(3-methylphenoxy) pyridine-4-carboxamide]",,≥ 80%,,,,,≥ 80%
"Cc1ccc(C(F)CNC(=O)c2cc(C)ncc2Oc2cccc(C3CC3)c2)c(Cl)c1 (stereo not drawn) [Compound 1.60, N-[2-(2-chloro-4-methyl-phenyl)-2-fluoro-ethyl]-5-(3-cyclopropyl-phenoxy)-2-methyl-pyridine-4-carboxamide]",≥ 80%,≥ 80%,,≥ 50%,,,≥ 80%
"N#Cc1ccc(Oc2cnc(Cl)cc2C(=O)NCC(F)c2ccc(Cl)cc2Cl)cc1 (stereo not drawn) [Compound 1.63, 2-chloro-5-(4-cyanophenoxy)-N-[2-(2,4-dichlorophenyl)-2-fluoro-ethyl]pyridine-4-carboxamide]",,≥ 80%,,,,,≥ 80%
"O=C(NCC(F)c1ccc(Cl)cc1Cl)c1cc(Cl)ncc1Oc1cccc(C2CC2)c1F (stereo not drawn) [Compound 1.70, 2-chloro-5-(3-cyclopropyl-2-fluoro-phenoxy)-N-[2-(2,4-dichlorophenyl)-2-fluoro-ethyl]pyridine-4-carboxamide]",≥ 80%,,≥ 80%,≥ 50%,,,≥ 80%
"Cc1ccc(C(F)CNC(=O)c2cc(Cl)ncc2Oc2cccc(C3CC3)c2)c(C)c1 (stereo not drawn) [Compound 1.78, 2-chloro-5-(3-cyclopropyl-phenoxy)-N-[2-(2,4-dimethylphenyl)-2-fluoro-ethyl]pyridine-4-carboxamide]",≥ 80%,≥ 80%,,,,,≥ 80%
"CCc1cncc(Oc2cccc(C3CC3)c2)c1C(=O)NCC(F)c1ccc(Cl)cc1Cl (stereo not drawn) [Compound 1.79, 3-(3-cyclopropyl-phenoxy)-N-[2-(2,4-dichlorophenyl)-2-fluoro-ethyl]-5-ethyl-pyridine-4-carboxamide]",≥ 80%,≥ 80%,≥ 80%,≥ 50%,,,≥ 80%
"CCc1cc(C(=O)NCC(F)c2ccc(Cl)cc2Cl)c(Oc2cccc(C3CC3)c2)cn1 (stereo not drawn) [Compound 1.81, 5-(3-cyclopropyl-phenoxy)-N-[2-(2,4-dichlorophenyl)-2-fluoro-ethyl]-2-ethyl-pyridine-4-carboxamide]",≥ 80%,≥ 80%,≥ 80%,≥ 50%,,,≥ 80%
"O=C(NCC(F)c1ccc(Cl)cc1Cl)c1c(Oc2cccc(C3CC3)c2)cncc1Oc1cccc(C2CC2)c1 (stereo not drawn) [Compound 1.84, 3,5-bis(3-cyclopropyl-phenoxy)-N-[2-(2,4-dichlorophenyl)-2-fluoro-ethyl]pyridine-4-carboxamide]",≥ 80%,≥ 80%,,≥ 50%,,,≥ 80%
"C#Cc1cc(C(=O)NCC(F)c2ccc(Cl)cc2Cl)c(Oc2cccc(C3CC3)c2)cn1 (stereo not drawn) [Compound 1.86, 5-(3-cyclopropyl-phenoxy)-N-[2-(2,4-dichlorophenyl)-2-fluoro-ethyl]-2-ethynyl-pyridine-4-carboxamide]",≥ 80%,≥ 80%,,,,≥ 80%,≥ 80%
"C#CC(C)(C)Oc1cncc(Oc2cccc(C3CC3)c2)c1C(=O)NCC(F)c1ccc(Cl)cc1Cl (stereo not drawn) [Compound 1.92, 3-(3-cyclopropyl-phenoxy)-N-[2-(2,4-dichlorophenyl)-2-fluoro-ethyl]-5-(1,1-dimethylprop-2-ynoxy)pyridine-4-carboxamide]",≥ 80%,≥ 80%,≥ 80%,,,≥ 80%,≥ 80%
"O=C(NCC(F)c1ccc(Cl)cc1Cl)c1c(O)cncc1Oc1cccc(C2CC2)c1 (stereo not drawn) [Compound 1.96, 3-(3-cyclopropyl-phenoxy)-N-[2-(2,4-dichlorophenyl)-2-fluoro-ethyl]-5-hydroxy-pyridine-4-carboxamide]",≥ 80%,≥ 80%,≥ 80%,,,,≥ 80%
"COc1cc(C(=O)NCC(F)c2ccc(Cl)cc2Cl)c(Oc2cccc(C3CC3)c2)cn1 (stereo not drawn) [Compound 1.98, 5-(3-cyclopropyl-phenoxy)-N-[2-(2,4-dichlorophenyl)-2-fluoro-ethyl]-2-methoxy-pyridine-4-carboxamide]",≥ 80%,≥ 80%,,,≥ 80%,,
